Test results: ChEMBL document CHEMBL3580659, “One-pot multicomponent synthesis of indole incorporated thiazolylcoumarins and their antibacterial, anticancer and DNA cleavage studies” (2015)

What was measured:
Format in all cases: functional
SK-MEL-5 [1] = assay: Cytotoxicity against human SK-MEL-5 cells assessed as cell growth level at 100 uM after 48 hrs by sulforhodamine B assay
[2] = Cytotoxicity against human NCI-ADR-RES cells assessed as cell growth level at 100 uM after 48 hrs by sulforhodamine B assay
SK-OV-3 [3] = assay: Cytotoxicity against human SKOV3 cells assessed as cell growth level at 100 uM after 48 hrs by sulforhodamine B assay
786-0 = assay: Cytotoxicity against human 786-0 cells assessed as cell growth level at 100 uM after 48 hrs by sulforhodamine B assay
NCI-H226 = assay: Cytotoxicity against human NCI-H226 cells assessed as cell growth level at 10 nM after 48 hrs by sulforhodamine B assay
NCI-H322M [4] = assay: Cytotoxicity against human NCI-H322M cells assessed as cell growth level at 10 nM after 48 hrs by sulforhodamine B assay
KM12 = assay: Cytotoxicity against human KM12 cells assessed as cell growth level at 10 nM after 48 hrs by sulforhodamine B assay
M14 [5] = assay: Cytotoxicity against human M14 cells assessed as cell growth level at 10 nM after 48 hrs by sulforhodamine B assay
[6] = Cytotoxicity against human NCI-ADR-RES cells assessed as cell growth level at 10 nM after 48 hrs by sulforhodamine B assay
HCC 2998 = assay: Cytotoxicity against human HCC2998 cells assessed as cell growth level at 100 nM after 48 hrs by sulforhodamine B assay
SW-620 = assay: Cytotoxicity against human SW620 cells assessed as cell growth level at 100 nM after 48 hrs by sulforhodamine B assay
SNB-75 [7] = assay: Cytotoxicity against human SNB75 cells assessed as cell growth level at 100 nM after 48 hrs by sulforhodamine B assay
M14 [8] = assay: Cytotoxicity against human M14 cells assessed as cell growth level at 100 nM after 48 hrs by sulforhodamine B assay
MDA-MB-435 = assay: Cytotoxicity against human MDA-MB-435 cells assessed as cell growth level at 100 nM after 48 hrs by sulforhodamine B assay
OVCAR-8 = assay: Cytotoxicity against human OVCAR8 cells assessed as cell growth level at 100 nM after 48 hrs by sulforhodamine B assay
UO-31 = assay: Cytotoxicity against human UO31 cells assessed as cell growth level at 100 nM after 48 hrs by sulforhodamine B assay
HL-60(TB) [9] = assay: Cytotoxicity against human HL-60(TB) cells assessed as cell growth level at 10 uM after 48 hrs by sulforhodamine B assay
SR = assay: Cytotoxicity against human SR cells assessed as cell growth level at 10 uM after 48 hrs by sulforhodamine B assay
HOP-92 [10] = assay: Cytotoxicity against human HOP92 cells assessed as cell growth level at 1 uM after 48 hrs by sulforhodamine B assay
NCI-H322M [11] = assay: Cytotoxicity against human NCI-H322M cells assessed as cell growth level at 1 uM after 48 hrs by sulforhodamine B assay
NCI-H322M [12] = assay: Cytotoxicity against human NCI-H322M cells assessed as cell growth level at 10 uM after 48 hrs by sulforhodamine B assay
SF-268 = assay: Cytotoxicity against human SF268 cells assessed as cell growth level at 10 uM after 48 hrs by sulforhodamine B assay
SNB-19 [13] = assay: Cytotoxicity against human SNB19 cells assessed as cell growth level at 10 uM after 48 hrs by sulforhodamine B assay
SNB-75 [14] = assay: Cytotoxicity against human SNB75 cells assessed as cell growth level at 10 uM after 48 hrs by sulforhodamine B assay
SK-MEL-5 [15] = assay: Cytotoxicity against human SK-MEL-5 cells assessed as cell growth level at 10 uM after 48 hrs by sulforhodamine B assay
SK-OV-3 [16] = assay: Cytotoxicity against human SKOV3 cells assessed as cell growth level at 10 uM after 48 hrs by sulforhodamine B assay
RXF 393 = assay: Cytotoxicity against human RXF393 cells assessed as cell growth level at 10 uM after 48 hrs by sulforhodamine B assay
SNB-19 [17] = assay: Cytotoxicity against human SNB19 cells assessed as cell growth level at 1 uM after 48 hrs by sulforhodamine B assay
SNB-75 [18] = assay: Cytotoxicity against human SNB75 cells assessed as cell growth level at 1 uM after 48 hrs by sulforhodamine B assay
Malme-3M = assay: Cytotoxicity against human MALME-3M cells assessed as cell growth level at 1 uM after 48 hrs by sulforhodamine B assay
SK-MEL-2 [19] = assay: Cytotoxicity against human SK-MEL-2 cells assessed as cell growth level at 1 uM after 48 hrs by sulforhodamine B assay
SK-MEL-5 [20] = assay: Cytotoxicity against human SK-MEL-5 cells assessed as cell growth level at 1 uM after 48 hrs by sulforhodamine B assay
HL-60(TB) [21] = assay: Cytotoxicity against human HL-60(TB) cells after 48 hrs by sulforhodamine B assay; details: HL-60, 48 h
HOP-92 [22] = assay: Cytotoxicity against human HOP92 cells assessed as cell growth level at 100 uM after 48 hrs by sulforhodamine B assay
HCT-116 = assay: Cytotoxicity against human HCT116 cells assessed as cell growth level at 100 uM after 48 hrs by sulforhodamine B assay
SK-MEL-2 [23] = assay: Cytotoxicity against human SK-MEL-2 cells after 48 hrs by sulforhodamine B assay; details: SK-MEL-2, 48 h
CAKI-1 = assay: Cytotoxicity against human CAKI-1 cells after 48 hrs by sulforhodamine B assay; details: CAKI-1, 48 h
[24] = Cytotoxicity against human Hs 578T cells after 48 hrs by sulforhodamine B assay
T47D = assay: Cytotoxicity against human T47D cells after 48 hrs by sulforhodamine B assay
MDA-MB-468 = assay: Cytotoxicity against human MDA-MB-468 cells after 48 hrs by sulforhodamine B assay; details: MDA-MB-468, 48 h
[25] = read-out: LC50 (the source's name)
[26] = read-out: pLC50 (the source's name) (converted)

O=c1oc2ccccc2cc1-c1csc(N/N=C/c2c[nH]c3ccccc23)n1 gave an Activity (SK-MEL-5 [1]) of -46%, an Activity [2] of 8% and an Activity (SK-OV-3 [3]) of -48%. The Activity (786-0) was -27%, the Activity (NCI-H226) was 98% and the Activity (NCI-H322M [4]) was 103%. For the same compound, the Activity (KM12) was 99%, the Activity (M14 [5]) was 97% and the Activity [6] was 105%. The Activity (HCC 2998) was 97%, the Activity (SW-620) was 95% and the Activity (SNB-75 [7]) was 90%. For the same compound, the Activity (M14 [8]) was 92%, the Activity (MDA-MB-435) was 99% and the Activity (OVCAR-8) was 107%. It also gave an Activity (UO-31) of 91%, an Activity (HL-60(TB) [9]) of -28.24% and an Activity (SR) of -0.54%. It also gave an Activity (HOP-92 [10]) of 87%, an Activity (NCI-H322M [11]) of 92% and an Activity (NCI-H322M [12]) of 15.29%. It also gave an Activity (SF-268) of 14.73%, an Activity (SNB-19 [13]) of 39.43% and an Activity (SNB-75 [14]) of 15.44%. It also gave an Activity (SK-MEL-5 [15]) of 69.78%, an Activity (SK-OV-3 [16]) of 62.24% and an Activity (RXF 393) of 25.19%. For the same compound, the Activity (SNB-19 [17]) was 73%, the Activity (SNB-75 [18]) was 74% and the Activity (Malme-3M) was 93%. It also gave an Activity (SK-MEL-2 [19]) of 90%, an Activity (SK-MEL-5 [20]) of 90% and a GI50 (HL-60(TB) [21]; read-out: GI50) of 0.45 µM. It also gave a CC50 (HL-60(TB) [21]; [25]) greater than 100 µM, a TGI (HL-60(TB) [21]; read-out: TGI) of 7.64 µM and a GI50 (HL-60(TB) [21]; read-out: pGI50 (converted)) of 0.457 µM. For the same compound, the CC50 (HL-60(TB) [21]; [26]) was greater than 100 µM, the TGI (HL-60(TB) [21]; read-out: pTGI (converted)) was 7.59 µM and the Activity (HOP-92 [22]) was -27%. For the same compound, the Activity (HCT-116) was -66%, the GI50 (SK-MEL-2 [23]; read-out: GI50) was 1.61 µM and the CC50 (SK-MEL-2 [23]; [25]) was 8.17 µM. It also gave a TGI (SK-MEL-2 [23]; read-out: TGI) of 3.62 µM, a GI50 (SK-MEL-2 [23]; read-out: pGI50 (converted)) of 1.62 µM and a CC50 (SK-MEL-2 [23]; [26]) of 8.13 µM. It also gave a TGI (SK-MEL-2 [23]; read-out: pTGI (converted)) of 3.63 µM, a GI50 (CAKI-1; read-out: GI50) of 1.61 µM and a CC50 (CAKI-1; [25]) greater than 100 µM. It also gave a TGI (CAKI-1; read-out: TGI) of 4.65 µM, a GI50 (CAKI-1; read-out: pGI50 (converted)) of 1.62 µM and a CC50 (CAKI-1; [26]) greater than 100 µM. For the same compound, the TGI (CAKI-1; read-out: pTGI (converted)) was 4.68 µM, the GI50 ([24]; read-out: GI50) was 3.2 µM and the CC50 [24, 25] was greater than 100 µM. It also gave a TGI ([24]; read-out: TGI) of 58.9 µM, a GI50 ([24]; read-out: pGI50 (converted)) of 3.16 µM and a CC50 [24, 26] greater than 100 µM. For the same compound, the TGI ([24]; read-out: pTGI (converted)) was 58.9 µM, the GI50 (T47D; read-out: GI50) was 1.98 µM and the CC50 (T47D; [25]) was greater than 100 µM. It also gave a TGI (T47D; read-out: TGI) of 5.9 µM, a GI50 (T47D; read-out: pGI50 (converted)) of 2 µM and a CC50 (T47D; [26]) greater than 100 µM. The TGI (T47D; read-out: pTGI (converted)) was 5.89 µM, the GI50 (MDA-MB-468; read-out: GI50) was 1.52 µM and the CC50 (MDA-MB-468; [25]) was greater than 100 µM. It also gave a TGI (MDA-MB-468; read-out: TGI) of 3.92 µM, a GI50 (MDA-MB-468; read-out: pGI50 (converted)) of 1.51 µM and a CC50 (MDA-MB-468; [26]) greater than 100 µM. The TGI (MDA-MB-468; read-out: pTGI (converted)) was 3.89 µM.
